How the values were obtained:
MIF = MIF (Homo sapiens (Human), UniProt P14174); assay: MIF tautomerase assay using pHPP as substrate; assay type: biochemical; conditions: cell-free, pHPP substrate 1.5 mM, MIF 3 nM; mean pIC50 of multiple test results
Procedure: Tautomerase Assay Using pHPP as substrate
This assay measured MIF's tautomerase activity in a cell-free system and was based on the determination of initial rates of the MIF-catalyzed conversion of the ketonic into the enolic tautomer of pHPP. This was achieved by spectrophotometric quantification of the complex between borate and the product of the reaction (enolic pHPP). The substrate was prepared by conversion of the enolic pHPP into its ketonic form. To achieve this, 0.5 M pHPP in methanol was diluted 10-fold with 50 mM sodium acetate buffer at pH 6.0, and then the suspension was shaken for 24 h at room temperature in darkness, and finally stored at 4° C. for not more than 1 week, with 5 min sonication being recommended before use.
Assays were performed in small-volume clear-bottom black 96 or 384-well polystyrene plates (Greiner Bio-One). First, 2 μL of the enzyme solution containing 6 nM of MIF in DPBS, 0.025% w/v BSA, and 300 μM CHAPS was dispensed onto sample and negative control wells using Multidrop Combi with metallic tip cassettes (Thermo Fisher Scientific) previously treated with Sigmacote. Then, 2 μL of the same buffer without MIF was dispensed onto positive control wells. The reaction was started by addition of the following to all wells: 2 μL of substrate solution containing 3 mM ketonic pHPP in 200 mM boric acid, 25 mM sodium phosphate, 0.025% w/v BSA, and 300 μM CHAPS at pH 6.0. In order to remove bubbles, the plate was centrifuged in an Allegra 25R centrifuge (Beckman Coulter, Inc., Brea, CA) at 1000 rpm for 2 min at room temperature. Then, the plate was read in an EnVision. Final concentrations of enzyme and substrate were 3 nM and 1.5 mM, respectively. Initial rates were calculated for each well as the slope of the absorbance progress curve.
(§1) The data mentioned below represents a mean pIC50 value of multiple test results. It is understood that the data illustrated below may have reasonable variation depending on the specific conditions and procedures used by the person conducting the testing.

BV2 cells = assay: BV2 cell proliferation assay (CCK-8); assay type: cell-based; conditions: Mus musculus, BV-2, 48 h treatment, CCK-8, top concentration 33.3 μM, mean pIC50 of multiple test results, read-out: BV2 Profileration pIC50 (converted)
Text: (§2) The assay measures the ability of a compound to inhibit cell proliferation using Cell Counting Kit-8 (CCK-8), which allows sensitive colorimetric assays for the determination of cell viability in cell proliferation and cytotoxicity assays. The highly water-soluble tetrazolium salt, WST-8, is reduced by dehydrogenase activities in cells to give a yellow-color formazan dye, which is soluble in the tissue culture media. The amount of the formazan dye, generated by the activities of dehydrogenases in cells, is directly proportional to the number of living cells.
(§3) The assay was performed based on the instruction of the manufacturer (Dojindo Molecular Technologies Inc., Rockville, MD, USA). To start the assay, BV2 cells were seeded at a density of […] into 96-well plates and treated with test compounds, which were used at a top final assay concentration of 33.3 μM, diluted in assay medium with 1:3 dilutions to produce 10 point concentration responses, for 48 h. After incubation, the CCK-8 solution (10 μl) was added to each well of the plate and the plates were incubated in incubator at 37° C. for 3 h. Absorbance was recorded three times independently using a microplate reader (Bio-Rad Laboratories, Richmond, CA, USA) at 450 nm.
as §1, with “Selected examples were tested in the BV2 cell proliferation. The” for “The”

U251 cell = U251 cell proliferation assay (CCK-8); assay type: cell-based; conditions: Homo sapiens, U-251; U251 cells; read-out: U251 Profileration pIC50 (converted)
Text: [The source words this procedure for another cell line and reports this cell line under the same test.] as §2, §3

Chain of MIF (P14174 2-115): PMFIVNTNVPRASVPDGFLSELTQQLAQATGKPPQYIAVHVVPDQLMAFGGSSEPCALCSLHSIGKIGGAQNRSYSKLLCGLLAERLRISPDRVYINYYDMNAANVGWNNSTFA

SMILES | Tautomerase Inhibition pIC50 (MIF) | IC50 (U251 cell) [µM] | IC50 (BV2 cells) [µM]
O=C1c2ccc(N3CCOCC3)cc2CCN1Cc1nnc(-c2cccs2)o1 [Compound 74, 6-morpholino-2-((5-(thiophen-2-yl)-1,3,4-oxadiazol-2-yl)methyl)-3,4-dihydroisoquinolin-1(2H)-one] | <5 | > 1000 | 25.1
O=C1c2ccc(Br)cc2CCN1Cc1nnc(-c2cccs2)o1 [Compound 73, 6-bromo-2-((5-(thiophen-2-yl)-1,3,4-oxadiazol-2-yl)methyl)-3,4-dihydroisoquinolin-1(2H)-one] | <5 | > 1000 | 23.4
O=C(NCc1nnc(-c2cccs2)o1)c1ccccc1F [Compound 44, 2-fluoro-N-((5-(thiophen-2-yl)-1,3,4-oxadiazol-2-yl)methyl)benzamide] | <5 | > 1000 | 45.7
COc1cc(OCCO)ccc1C(=O)Nc1nnc(-c2cccs2)o1 [Compound 17, 4-(2-hydroxyethoxy)-2-methoxy-N-(5-(thiophen-2-yl)-1,3,4-oxadiazol-2-yl)benzamide] | 7.98 | > 1000 | 11.5
COc1cc(OCc2nn[nH]n2)ccc1C(=O)Nc1nnc(-c2cccs2)o1 [Compound 22, 4-((2H-tetrazol-5-yl)methoxy)-2-methoxy-N-(5-(thiophen-2-yl)-1,3,4-oxadiazol-2-yl)benzamide] | 7.91 | > 1000 | > 1000
COc1cc(N2CCOCC2)ccc1C(=O)NCc1nnc(-c2ccccc2)o1 [Compound 63, 2-methoxy-4-morpholino-N-((5-phenyl-1,3,4-oxadiazol-2-yl)methyl)benzamide] | <5 | > 1000 | 21.4
COc1cccc(OC)c1C(=O)NCc1nnc(-c2cccs2)o1 [Compound 46, 2,6-dimethoxy-N-((5-(thiophen-2-yl)-1,3,4-oxadiazol-2-yl)methyl)benzamide] | 3.70 | > 1000 | > 1000
COc1cc(N2CCOCC2)ccc1NC(=O)c1nnc(-c2cccs2)o1 [Compound 75, N-(2-methoxy-4-morpholinophenyl)-5-(thiophen-2-yl)-1,3,4-oxadiazole-2-carboxamide] | <5 | > 1000 | 28.2

Continued, in another order:

Tautomerase Inhibition pIC50 (MIF) | IC50 (U251 cell) [µM] | SMILES | IC50 (BV2 cells) [µM]
5.53 | > 1000 | COc1cc(OC2CCN(C)C2)ccc1C(=O)NCc1nnc(-c2cccs2)o1 (stereo not drawn) [Compound 82, 2-methoxy-4-((1-methylpyrrolidin-3-yl)oxy)-N-((5-(thiophen-2-yl)-1,3,4-oxadiazol-2-yl)methyl)benzamide] | > 1000
6.04 | > 1000 | COc1cc(CC(C)(C)O)ccc1C(=O)NCc1nnc(-c2cccs2)o1 [Compound 84, 4-(2-hydroxy-2-methylpropyl)-2-methoxy-N-((5-(thiophen-2-yl)-1,3,4-oxadiazol-2-yl)methyl)benzamide] | 41.7
5.90 | > 1000 | COc1cc(N2CCN(C)CC2)ccc1C(=O)NCc1nnc(-c2cccs2)o1 [Compound 59, 2-methoxy-4-(4-methylpiperazin-1-yl)-N-((5-(thiophen-2-yl)-1,3,4-oxadiazol-2-yl)methyl)benzamide] | 40.7
1.77 | > 1000 | COc1cc(NC2CCN(C)C2)ccc1C(=O)NCc1nnc(-c2cccs2)o1 (stereo not drawn) [Compound 76, 2-methoxy-4-((1-methylpyrrolidin-3-yl)amino)-N-((5-(thiophen-2-yl)-1,3,4-oxadiazol-2-yl)methyl)benzamide] | > 1000
5.95 | > 1000 | COc1cc(N2CCNCC2)ccc1C(=O)NCc1nnc(-c2cccs2)o1 [Compound 58, 2-methoxy-4-(piperazin-1-yl)-N-((5-(thiophen-2-yl)-1,3,4-oxadiazol-2-yl)methyl)benzamide] | 35.5
5.20 | > 1000 | COc1cc(CN2CCCCC2)ccc1C(=O)NCc1nnc(-c2cccs2)o1 [Compound 85, 2-methoxy-4-(piperidin-1-ylmethyl)-N-((5-(thiophen-2-yl)-1,3,4-oxadiazol-2-yl)methyl)benzamide] | > 1000
6.29 | > 1000 | COc1cc(N2CCOCC2)ccc1C(=O)NCc1nnc(-c2cccs2)o1 [Compound 51, 2-methoxy-4-morpholino-N-((5-(thiophen-2-yl)-1,3,4-oxadiazol-2-yl)methyl)benzamide] | 13.2

Reference: US11884682B2, “Compounds and their uses as MIF inhibitors” (NANJING IMMUNOPHAGE BIOTECH CO., LTD., priority 2020, dated 2024)
